Assay results from patent US20260364072A1, “METHODS FOR PROMOTING EXPANSION OF HUMAN CD34+ CELLS IN VIVO AND FOR PROMOTING NEURAL REGENERATION” (THE REGENTS OF THE UNIVERSITY OF CALIFORNIA, priority 2023, published 2026).

Key:
MDA-MB-231 cells = assay: IVIS total flux in MDA-MB-231 transplanted mice; type: in vivo, human cells in Rag2 neonatal mice; conditions: 0 day after completing the dosing plan; compared to vehicle control
From the text: FIG. 5 graphically illustrates IVIS (In Vivo Imaging System) results of ADAR1-MDA-MB-231 transplanted Rag2 mouse models, and IVIS images were taken at 6 weeks after transplant (FIG. 5A), after two weeks of therapy (FIG. 5B), and one week after therapy was completed (FIG. 5C), as discussed in further detail in Example 5, below.
Ten thousand (10k) MDA-MB-231 cells were intrahepatically transplanted into Rag2 neonatal mice, then treated with fedratinib, rebecsinib, or a combination of fedratinib and rebecsinib. IVIS images were taken at 6 weeks after transplant (FIG. 5A), after two weeks of therapy (FIG. 5B), and one week after therapy was completed (FIG. 5C). The IVIS signals from the mice were graphed by groups.
The IVIS images of these mice were taken at 0 day after completing the dosing plan and are graphed by their total flux.

[1] = Rat single-dose toxicokinetic study; type: in vivo, Sprague Dawley rats; conditions: IV bolus; for Tmax / half-life: plasma
Description: Pre-IND PD and toxicokinetic (TK) studies (FIG. 4D) were enabled by scalable Rebecsinib synthesis^34 and development of an optimized formulation for in vivo biodistribution (5% w/v EtOH, 5% w/v Kolliphor HS15 in 0.9% Sodium Chloride). In PK studies, Rebecsinib was detectable in rat, rabbit, and non-human primate (NHP) plasma following IV bolus administration. In rat TK studies, Rebecsinib was quantifiable up to 1-hour post-dose at 1 mg/kg and up to 4 hours post-dose at 3, 5, and 8 mg/kg (FIG. 4E). […] Rebecsinib T1/2 values were 0.342, 0.447, 0.313, and 0.530 hours at 1, 3, 5, and 8 mg/kg, respectively. […] Following 3, 10, and 20 mg/kg boluses, Rebecsinib was quantifiable in plasma 1 hour post-dose and could be detected up to 8 hours post-dosing with 40 mg/kg (FIG. 4F). […] Following 3, 10, 15, and 20 mg/kg of Rebecsinib, quantifiable plasma concentrations of Rebecsinib were observed through 8 hrs post-dose (FIG. 4G).
(FIG. 29D) Schematic diagram outlining multispecies toxicokinetic (TK) and pharmacodynamic studies in mammalian species treated in vivo with a single dose of Rebecsinib. Toxicokinetic analyses were performed in rats (n=6 per sex, per group), rabbits (n=2 per sex, per group), and non-human primates (NHPs, n=1 per sex, per group) and pharmacodynamic splice isoform quantification studies were performed in peripheral blood mononuclear cells (PBMCs) from NHP.
(FIG. 29E, FIG. 29F) For toxicokinetic analyses, rats (FIG. 29E) and rabbits (FIG. 29F) were given a single injection of Rebecsinib at 1-40 mg/kg, or vehicle control, and blood samples were drawn at regular intervals to determine plasma concentrations of the compound over 8 hr after treatment.
Single-dose TK studies were performed in Sprague Dawley rats (Charles River Labs, South San Francisco, CA), New Zealand white rabbits (BASi/Inotiv, West Lafayette, IN), and cynomolgus monkeys (BASi/Inotiv). Rat and rabbit studies included toxicology analyses, quantification of plasma levels of Rebecsinib, and necropsies to evaluate organ integrity after treatment. For NHP studies, health and ophthalmological evaluations were performed before and after dosing with Rebecsinib, and blood samples were collected for quantification of plasma levels of Rebecsinib and biomarker studies in PBMCs from treated and control animals. All monkeys were returned to the animal colony after the end of the observation period. Toxicokinetic values including mean plasma concentrations and t1/2 values were calculated according to CRO-approved protocols (Charles River and BASi).

RNA editing = assay: Whole transcriptome RNA editing analysis of CD34+ cells from sAML50261 engrafted mice; type: in vivo, human cells in mice; conditions: mice treated with 5 or 10 mg/kg
Description: FIG. 30E illustrates a whole transcriptome-based RNA editing analyses of previously-described RNA-seq data^14 generated from CD34^+ cells isolated from the spleens of sAML50261 engrafted mice treated with Rebecsinib or vehicle;
For RNA editing analyses of whole transcriptome sequencing data, previous datasets were utilized from CD34^+ cells isolated from the spleens of sAML50261-engrafted mice treated once weekly with Rebecsinib in a dose-response assay (5 or 10 mg/kg),^14 along with CD34^+ cells harvested from mice that were serially transplanted with CD34+ cells from sAML50261-engrafted mice that had been treated twice weekly with Rebecsinib at 10 mg/kg (no further treatment was delivered to serial transplant recipients). Due to limiting number of cells remaining after treatment, cells were pooled from n=4 to 5 mice per condition for sequencing. RNA editing analysis was performed as previously described.^5

normal aged HSPC = assay: ADAR1 nanoluc-GFP aged normal bone marrow CD34+ engrafted mice; type: in vivo, human cells in immunocompromised mice; conditions: 10 mg/kg
From the text: To further test the utility of the ADAR1 nanoluc-GFP reporter for in vivo detection of endogenous ADAR1 activity, primary human aged normal bone marrow CD34^+ cells were transduced with the reporter vector and transplanted into immunocompromised mice. ADAR1 activity was detected by live animal bioluminescence imaging and corresponded with human cell engraftment detection by flow cytometry.
In humanized mouse models, sAML cells (CD34^+) from two unique […] patient samples that were splicing factor mutated or unmutated were utilized, including sAML50261 and sAML2008-5.^14 For in vivo efficacy and therapeutic index studies, sAML CD34^+ cells, or normal human cord blood-derived or aged bone marrow-derived HSPCs (CD34^+), were transplanted (50,000-200,000 cells per mouse) intrahepatically into neonatal Rag2^−/−γc^−/− mice, or intravenously into adult NSG-SGM3 mice (Jackson Laboratories, Bar Harbor, ME). A subset of experiments was performed with normal aged bone marrow cells that were transduced with the lentiviral ADAR1 nanoluc-GFP reporter vector prior to transplant. For transplantation into adult mice, animals were irradiated with ^137Cs at a dose of 150 cGy 24 hr before IV transplantation. […]

For `CC[C@H](OC)[C@@H](C)[C@H]1O[C@@H]1[C@@H](O)[C@H](C)/C=C/C=C(\C)[C@H]1OC(=O)C[C@H](O)CC[C@@](C)(O)[C@@H](OC(C)=O)/C=C/[C@@H]1C` [Rebecsinib], the “total flux (IVIS)” value (MDA-MB-231 cells) was “significantly decreased”, the “last time quantifiable in plasma” value ([1]; 1 mg/kg) was “up to 1 hour” and the “last time quantifiable in plasma” value ([1]; 3 mg/kg) was “up to 4 hours”. For the same compound, the “last time quantifiable in plasma” value ([1]; 5 mg/kg) was “up to 4 hours”, the “last time quantifiable in plasma” value ([1]; 8 mg/kg) was “up to 4 hours” and the Tmax ([1]; 1 mg/kg) was at most 4.98 min. It also gave a half-life ([1]; 1 mg/kg) of 20.5 min, a Tmax ([1]; 3 mg/kg) of at most 10 min and a half-life ([1]; 3 mg/kg) of 26.8 min. For the same compound, the Tmax ([1]; 5 mg/kg) was at most 4.98 min, the half-life ([1]; 5 mg/kg) was 18.8 min and the Tmax ([1]; 8 mg/kg) was at most 10 min. The half-life ([1]; 8 mg/kg) was 31.8 min, the RNA editing activity (RNA editing) was “global downregulation of RNA editing activity that occurred in a dose-responsive manner” and the “human HSPC engraftment and mature T or B cell maturation” value (normal aged HSPC) was “no loss of human HSPC engraftment or mature T or B cell maturation”. The “frequency of normal CD34+ cells in bone marrow” value (normal aged HSPC; in comparison to cord blood transplantation models) was “appeared to be increased”.
